Results: US6906061B2, “Pharmaceutical agent containing Rho kinase inhibitor” (Mitsubishi Pharma Corporation, priority 1996, dated 2005)

What was measured:
[1] = tested on: thoractic aorta ring contracted with phenylephrine; test: Vasodilating action on phenylephrine-contracted thoracic aorta rings; conditions: Oryctolagus cuniculus; rabbit aortic ring, phenylephrine 10^−6 M contraction; concentration for 50% relaxation; read-out: Vasorelaxing action
Description: Male rabbits (body weight 1.9-3.0 kg) were anesthetized with pentobarbital sodium and exsanguinated, whereafter thoractic aorta was removed. An about 2 mm width aortic ring samples were prepared and hung in a Magnus bath (40 ml) filled with Krebs-Henseleit solution (37° C., NaCl 117 mM; KCl 4.7 mM; CaCl2 2.5 mM; MgSO4 1.2 mM; NaHCO3 24.8 mM; KH2PO4 1.2 mM; glucose 11.0 mM) at a load of 2 g. The Magnus bath was constantly bubbled with a mixed gas (95% O2+5% CO2 gas). The tension of the preparation was measured with an isomeric transducer (TB-611T, Nippon Koden). The preparation was contracted with phenylephrine (10^−6 M) and, after the contraction was stabilized, the test compound was added accumulatively and relaxing action was observed.

[2] = tested on: hind limb skin blood flow; test: Peripheral blood flow increasing action in STZ-induced diabetic rats; format: in vivo, rat; conditions: intravenous, 1 μg
Outline: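 Male SD rats (200-300 g) made diabetic with STZ 65 mg/kg i.v.; one month later, under pentobarbital anesthesia, compound given i.v. via carotid catheter. Hind limb skin blood flow measured by laser flowmeter, expressed as percent increase over pre-dose flow.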

[3] = tested on: normal human umberical vascular endothelial cells; test: Inhibition of angiogenesis (lumen formation in vascular endothelial cells); format: cell-based; conditions: 18 hours, compared with the control, number rises with inhibition of lumen formation
Description: Inhibition of Angiogenesis
The inhibition of angiogenesis was evaluated by using the inhibition of lumen formation in vascular endothelial cell as an index. To be specific, normal human umberical vascular endothelial cells (KURABO […] LTD.) were suspended in E-GMUV medium at 5.5×10^4 cells/ml and 400 μl therefrom was added on matrigel plate (EHS sarcoma-derived reconstructed basement membrane, Collaborative Biomedical Products). Then, the test compound (1 mM solution, 4 μl) was added and the cells were incubated at 37° C. under 5% CO2 gas for 18 hours. After the completion of the incubation, the number of lumen per predetermined area was counted under a microscope. Inasmuch as the number of lumen increases by the inhibition of lumen formation, the test compound was evaluated by comparison of the number of lumen with the control.

[4] = target: T1, Human Platelet Rho Kinase (p160ROCK) (Homo sapiens, UniProt Q13464); test: Rho kinase inhibitory action (inhibition of human platelet Rho kinase (p160ROCK)); format: biochemical; conditions: histone substrate, 1 μM ATP
T1 construct: Human platelet p160ROCK was isolated by the method of Ishizaki et al; from tissue; host or cells: human platelets
Description: Rho Kinase Inhibitory Action (Inhibition of Human Platelet Rho Kinase (p160ROCK))
(§1) Kinase assay included the following steps. That is, a reaction mixture (total amount 30 μl) containing 50 mM Hepes-NaOH (pH=7.4), 10 mM MgCl2, 5 mM MnCl2, 2 mM dithiothreitol, 0.02% Brij35, 1 μM [γ-^32P]ATP, 330 μg/ml histone, p160ROCK (2 μl) isolated by the method of Ishizaki et al. and the test compound was incubated at 30° C. for 20 minutes. The solution was mixed with a 1/3 amount of 4× Laemmli sample buffer, boiled for 5 minutes and applied to SDS-PAGE. The gel was stained with Coomassie Brilliant Blue and dried. The band of histone was cut out and assayed for radioactivity.

p160ROCK = target: T2, p160ROCK (Homo sapiens, UniProt Q13464); test: Inhibition of p160ROCK (myc-tagged, expressed in COS cells); format: biochemical; conditions: enzyme expressed in COS cells
T2 construct: made in house; host or cells: COS cells (transient transfection, immunoprecipitated with 9E10 anti-myc antibody on protein G-Sepharose)
Description: as §1
(§2) Rho Kinase Inhibitory Action (Inhibition of p160ROCK and ROCKII)
(§3) COS cells were seeded in a 3.5 cm dish and incubated overnight. […] After incubation for 20 hours, the cells were washed once with ice-cooled PBS, and the cells were lysed on ice for 20 minutes using a lysis buffer (20 mM Tris-HCl (pH=7.5), 1 mM EDTA, 1 mM EGTA, 5 mM MgCl2, 25 mM NaF, 10 mM β glycerophosphate, 5 mM sodium pyrophorphate, 0.2 mM phenylmethylsulfonyl fluoride, 2 mM dithiothreitol, 0.2 mM sodium vanadate, 0.05% Triton X-100, 0.1 μM calyculin A). The lysate was centrifuged at 10,000×g for 10 minutes and the supernatant was recovered. […] Then, protein G-Sepharose was added and the mixture was shaken for 2 more hours. […]

ROCKII = target: T3, ROCKII (Mus musculus, UniProt P70336); test: Inhibition of ROCKII (myc-tagged, expressed in COS cells); format: biochemical; conditions: enzyme expressed in COS cells; read-out: IC50 (μM) ROCK-II
T3 construct: made in house; host or cells: COS cells (transient transfection, immunoprecipitated with 9E10 anti-myc antibody on protein G-Sepharose)
Description: as §1, §2, §3

[5] = tested on: trachea specimen contracted with acetylcholine; test: Effect on contraction by acetylcholine of trachea specimen removed from guinea pig; conditions: Cavia porcellus, acetylcholine 10^−6 M contraction, 50% relaxation vs papaverine 10^−4 M maximum, read-out: Trachea relaxing action
Description: Male Hartley guinea pigs (body weight 260-390 g) were anesthetized by the peritoneal administration of pentobarbital sodium (100 mg/kg) and exsanguinated, whereafter trachea was removed. The anterior cartilage of the trachea was opened and the band was cut in a 3 mm width strip to give a specimen. The specimen was hung in a Magnus bath (40 ml) filled with Krebs-Henseleit solution (NaCl 117 mM; KCl 4.7 mM; CaCl2 2.5 mM; MgSO4 1.2 mM; NaHCO3 24.8 mM; KH2PO4 1.2 mM; glucose 11.0 mM) at a load of 1 g. The Magnus bath was constantly bubbled with a mixed gas (95% O2+5% CO2 gas). The tension of the strip was measured with an isomeric transducer (TB-611T, Nippon Koden) and depicted on a recorder (Ti-102, Tokai Irika).

Human SK-Mel-28 melanoma = test: Inhibition of cell growth of SK-Mel-28 melanoma; format: cell-based; conditions: 72 hours, MTT
Description: Inhibition of Cell Growth of SK-Mel-28 Melanoma
Human SK-Mel-28 melanoma (10^4 cells) and the test compound were suspended in RPMI1640 medium containing 100 μl of 10% FBS and incubated in a 96 well plate at 37° C. under 5% CO2 gas for 72 hours. After the incubation, 10 μl of MTT (5 mg/ml) was added to each well and the cells were incubated at 37° C. under 5% CO2 gas for 4 hours. Then, 10% sodium dodecyl sulfate and 0.01 N hydrochloric acid solution were each added by 10 μl to respective wells. After the plate was stood overnight, absorbance at 570 nm was measured using a microplate reader and the inhibition percentage (% cytotoxicity) was calculated by the following formula.
The cytotoxicity against human cultured tumor cells was confirmed by pigment method (Carmichael et al., Cancer Res., 47, 936-942, 1987: Mosman, J. Immunol. Methods, 65, 55-63, 1983) using 3-(4,5-dimethylthiazol-2-yl)-2,5-diphenyltetrazolium bromide (MTT).
The test compound was dissolved in dimethyl sulfoxide and diluted with RPMI 1640 medium before use. The final dimethyl sulfoxide concentration was adjusted to not more than 0.25%.

ddY mice = test: Acute toxicity in ddY mice; format: in vivo; conditions: intraperitoneal administration at 30 mg/kg, monitored for 5 days
Excerpt: The compound 109.2HCl and compound 143.2HCl.H2O were respectively administered intraperitoneally to ddY mice and the mice were monitored for 5 days.

T2 sequence (Q13464 whole entry): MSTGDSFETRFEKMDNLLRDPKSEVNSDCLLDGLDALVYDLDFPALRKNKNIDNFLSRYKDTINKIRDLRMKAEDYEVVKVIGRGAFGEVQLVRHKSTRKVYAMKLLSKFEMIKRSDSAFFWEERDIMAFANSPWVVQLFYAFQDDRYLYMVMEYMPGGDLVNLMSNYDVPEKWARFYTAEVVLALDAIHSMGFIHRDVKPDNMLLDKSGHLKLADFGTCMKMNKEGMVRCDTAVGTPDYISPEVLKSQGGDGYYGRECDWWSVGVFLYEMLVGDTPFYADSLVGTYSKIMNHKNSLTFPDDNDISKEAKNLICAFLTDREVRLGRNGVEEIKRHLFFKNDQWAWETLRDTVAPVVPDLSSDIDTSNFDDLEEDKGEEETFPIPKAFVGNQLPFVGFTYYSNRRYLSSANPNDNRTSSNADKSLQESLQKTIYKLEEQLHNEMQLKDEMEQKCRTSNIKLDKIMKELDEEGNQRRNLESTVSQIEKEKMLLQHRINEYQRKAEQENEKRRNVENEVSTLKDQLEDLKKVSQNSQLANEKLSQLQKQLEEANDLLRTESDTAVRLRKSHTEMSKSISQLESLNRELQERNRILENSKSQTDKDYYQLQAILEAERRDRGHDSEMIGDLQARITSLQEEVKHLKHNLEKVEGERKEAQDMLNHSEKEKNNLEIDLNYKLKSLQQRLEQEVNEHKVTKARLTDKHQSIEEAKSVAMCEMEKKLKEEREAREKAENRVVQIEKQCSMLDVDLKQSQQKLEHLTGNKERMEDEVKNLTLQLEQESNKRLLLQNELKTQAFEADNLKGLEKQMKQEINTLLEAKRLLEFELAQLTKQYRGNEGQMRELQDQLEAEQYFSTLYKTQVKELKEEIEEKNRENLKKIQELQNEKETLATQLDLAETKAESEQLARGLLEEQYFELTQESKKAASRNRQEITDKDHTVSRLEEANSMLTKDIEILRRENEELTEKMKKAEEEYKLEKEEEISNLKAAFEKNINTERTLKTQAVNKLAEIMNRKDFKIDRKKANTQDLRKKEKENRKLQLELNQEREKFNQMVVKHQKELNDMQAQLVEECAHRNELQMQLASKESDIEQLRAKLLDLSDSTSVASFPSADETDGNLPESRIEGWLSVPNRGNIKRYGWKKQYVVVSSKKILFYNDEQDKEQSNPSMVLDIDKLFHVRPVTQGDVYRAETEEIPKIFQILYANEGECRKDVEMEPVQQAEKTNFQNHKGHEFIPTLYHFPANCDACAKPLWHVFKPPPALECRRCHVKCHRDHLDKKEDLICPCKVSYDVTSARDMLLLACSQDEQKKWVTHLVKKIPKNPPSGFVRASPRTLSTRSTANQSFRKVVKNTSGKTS
T1 sequence (Q13464 whole entry): as above
T3 sequence (P70336 whole entry): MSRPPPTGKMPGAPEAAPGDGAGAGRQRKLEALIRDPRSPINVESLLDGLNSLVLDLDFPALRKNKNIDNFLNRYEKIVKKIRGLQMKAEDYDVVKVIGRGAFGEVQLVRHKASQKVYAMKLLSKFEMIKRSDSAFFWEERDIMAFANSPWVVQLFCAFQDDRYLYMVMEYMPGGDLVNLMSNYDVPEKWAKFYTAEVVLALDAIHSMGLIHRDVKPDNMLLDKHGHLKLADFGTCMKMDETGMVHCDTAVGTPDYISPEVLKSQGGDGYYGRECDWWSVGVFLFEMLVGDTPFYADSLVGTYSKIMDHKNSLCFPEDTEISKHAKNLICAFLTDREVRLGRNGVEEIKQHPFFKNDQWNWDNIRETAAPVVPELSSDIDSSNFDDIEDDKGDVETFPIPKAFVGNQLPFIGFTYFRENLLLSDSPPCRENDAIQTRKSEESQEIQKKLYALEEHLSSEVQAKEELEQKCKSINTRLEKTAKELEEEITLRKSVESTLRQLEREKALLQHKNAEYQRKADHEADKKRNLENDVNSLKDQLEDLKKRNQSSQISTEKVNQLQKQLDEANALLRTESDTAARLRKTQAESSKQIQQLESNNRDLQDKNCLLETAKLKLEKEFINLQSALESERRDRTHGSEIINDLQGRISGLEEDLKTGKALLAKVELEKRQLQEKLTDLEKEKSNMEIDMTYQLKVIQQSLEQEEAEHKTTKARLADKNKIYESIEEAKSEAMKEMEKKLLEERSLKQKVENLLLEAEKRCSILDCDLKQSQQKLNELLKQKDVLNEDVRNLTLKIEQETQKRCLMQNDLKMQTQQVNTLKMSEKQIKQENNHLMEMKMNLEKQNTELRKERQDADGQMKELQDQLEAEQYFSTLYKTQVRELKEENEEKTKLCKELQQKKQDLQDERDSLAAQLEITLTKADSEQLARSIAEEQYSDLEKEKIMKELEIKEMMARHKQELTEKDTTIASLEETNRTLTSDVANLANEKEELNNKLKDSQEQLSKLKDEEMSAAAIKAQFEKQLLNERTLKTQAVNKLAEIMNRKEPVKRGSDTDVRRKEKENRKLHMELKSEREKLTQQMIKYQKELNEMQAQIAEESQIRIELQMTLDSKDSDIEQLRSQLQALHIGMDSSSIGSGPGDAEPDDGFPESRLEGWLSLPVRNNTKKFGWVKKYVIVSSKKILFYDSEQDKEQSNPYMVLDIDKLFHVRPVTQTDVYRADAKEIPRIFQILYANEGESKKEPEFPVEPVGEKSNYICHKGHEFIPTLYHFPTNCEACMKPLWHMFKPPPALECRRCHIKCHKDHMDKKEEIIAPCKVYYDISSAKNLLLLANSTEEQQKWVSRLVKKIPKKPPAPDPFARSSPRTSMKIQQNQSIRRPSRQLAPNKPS

| SMILES | IC50 [1] | Increase in skin blood flow ± standard error (%) [2] | Number of lumen (10 μM) [3] | IC50 [4] | IC50 (p160ROCK) | IC50 (ROCKII) | IC50 [5] | IC50 (Human SK-Mel-28 melanoma) | Acute toxicity (death) (ddY mice) |
| --- | --- | --- | --- | --- | --- | --- | --- | --- | --- |
| CC(N)[C@H]1CC[C@H](C(=O)Nc2ccncc2)CC1 (single isomer, unassigned; (+)) [Compound 80.2HCl.H2O, (+)-trans-4-(1-aminoethyl)-1-(4-pyridylcarbamoyl)cyclohexane] | 700 nM | 135.0 ± 13.4% | 174% | – | – | – | – | – | – |
| CC(N)[C@H]1CC[C@H](C(=O)Nc2ccnc3[nH]ccc23)CC1 (single isomer, unassigned; (+)) [Compound 109.2HCl, (+)-trans-N-(1H-pyrrolo[2,3-b]pyridin-4-yl)-4-(1-aminoethyl)cyclohexanecarboxamide] | 100 nM | – | 153% | 110 nM | 0.095 µM | 0.048 µM | 43 nM | 58000 nM | did not cause death |
